From PMC6943736, “Bio-Guided Isolation of Prospective Bioactive Constituents from Roots of Clausena indica (Dalzell) Oliv” (Molecules, 2019)

Molecular target: tyrosinase
Test: enzyme assay with L-tyrosine substrate, […] nm
Format: biochemical

Tyrosinase Inhibition IC50: 179.5 mg/L
Structure (SMILES): COc1ccc2c(c1)[nH]c1cc(OC)c(C(=O)O)cc12 [L3, Clausine K]
